Measured values: ChEMBL document CHEMBL5120927, “LEGO-Lipophosphonoxins: A Novel Approach in Designing Membrane Targeting Antimicrobials” (J Med Chem, 2022)

test system: Enterococcus faecalis; experiment: Antibacterial activity against Enterococcus faecalis ATCC 29212 = CCM 4224 assessed as inhibition of bacterial growth incubated for 24 hrs by microdilution assay; format: functional; settings: not given

| Structure (SMILES) | MIC [µg/mL] |
| --- | --- |
| CCCCCCCCCCCCCCOP(=O)(CCN(CCCN)CCCN)OCC.Cl.Cl.Cl (stereo unspecified) | 4 |
| CCCCCCCCCOP(=O)(CCN(CCCN)CCCN)OCCc1ccc(Cl)cc1.Cl.Cl.Cl (stereo unspecified) | 2 |
| CCCCCCCCCCCCOP(=O)(CCN(CCCN)CCCN)OCCCCCCCCCCCC.Cl.Cl.Cl | 25 |
| CCCCCCCCCCCCCCCOP(=O)(CCN(CCCN)CCCN)OCC.Cl.Cl.Cl (stereo unspecified) | 2 |
| CCCCCCOP(=O)(CCN(CCCN)CCCN)OCCCCCCCCCCCCOP(=O)(CCN(CCCN)CCCN)OCCCCCC.Cl.Cl.Cl.Cl.Cl.Cl (stereo unspecified) | 0.5 |
| CCCCCCCCCCCCCCOP(=O)(CCN(CCCN)CCCN)OCCc1c[nH]c2ccccc12.Cl.Cl.Cl.Cl (stereo unspecified) | 4 |
| CCCCCCCCCCCCCCCCOP(=O)(CCN(CCCN)CCCN)OCC.Cl.Cl.Cl (stereo unspecified) | 2 |

test system: not listed separately; experiment: Gradient chromatographic hydrophobicity index of the compound at pH 3.7 by HPLC analysis; format: ADME; settings: not given

| Structure (SMILES) | CHI |
| --- | --- |
| CCCCCCOP(=O)(CCN(CCCN)CCCN)OCCCCCCCCCCCCOP(=O)(CCN(CCCN)CCCN)OCCCCCC.Cl.Cl.Cl.Cl.Cl.Cl (stereo unspecified) | 37.7 |

test system: Escherichia coli; experiment: Antibacterial activity against Escherichia coli ATCC 25922 = CCM 3954 assessed as inhibition of bacterial growth incubated for 24 hrs by microdilution assay; format: functional; settings: not given

| Structure (SMILES) | MIC [µg/mL] |
| --- | --- |
| CCCCCCCCCCCCCCOP(=O)(CCN(CCCN)CCCN)OCC.Cl.Cl.Cl (stereo unspecified) | 4 |
| CCCCCCCCCOP(=O)(CCN(CCCN)CCCN)OCCc1ccc(Cl)cc1.Cl.Cl.Cl (stereo unspecified) | 2 |
| CCCCCCCCCCCCOP(=O)(CCN(CCCN)CCCN)OCCCCCCCCCCCC.Cl.Cl.Cl | 100 |
| CCCCCCCCCCCCCCCOP(=O)(CCN(CCCN)CCCN)OCC.Cl.Cl.Cl (stereo unspecified) | 1 |
| CCCCCCOP(=O)(CCN(CCCN)CCCN)OCCCCCCCCCCCCOP(=O)(CCN(CCCN)CCCN)OCCCCCC.Cl.Cl.Cl.Cl.Cl.Cl (stereo unspecified) | 1 |
| CCCCCCCCCCCCCCOP(=O)(CCN(CCCN)CCCN)OCCc1c[nH]c2ccccc12.Cl.Cl.Cl.Cl (stereo unspecified) | 2 |
| CCCCCCCCCCCCCCCCOP(=O)(CCN(CCCN)CCCN)OCC.Cl.Cl.Cl (stereo unspecified) | 2 |

test system: Staphylococcus aureus; experiment: Antibacterial activity against Staphylococcus aureus ATCC 29213 = CCM 4223 assessed as inhibition of bacterial growth incubated for 24 hrs by microdilution assay; format: functional; settings: not given

| Structure (SMILES) | MIC [µg/mL] |
| --- | --- |
| CCCCCCCCCCCCCCOP(=O)(CCN(CCCN)CCCN)OCC.Cl.Cl.Cl (stereo unspecified) | 4 |
| CCCCCCCCCOP(=O)(CCN(CCCN)CCCN)OCCc1ccc(Cl)cc1.Cl.Cl.Cl (stereo unspecified) | 2 |
| CCCCCCCCCCCCOP(=O)(CCN(CCCN)CCCN)OCCCCCCCCCCCC.Cl.Cl.Cl | 100 |
| CCCCCCCCCCCCCCCOP(=O)(CCN(CCCN)CCCN)OCC.Cl.Cl.Cl (stereo unspecified) | 2 |
| CCCCCCCCCCCCCCOP(=O)(CCN(CCCN)CCCN)OCCc1c[nH]c2ccccc12.Cl.Cl.Cl.Cl (stereo unspecified) | 2 |
| CCCCCCCCCCCCCCCCOP(=O)(CCN(CCCN)CCCN)OCC.Cl.Cl.Cl (stereo unspecified) | 2 |

test system: Pseudomonas aeruginosa; experiment: Antibacterial activity against Pseudomonas aeruginosa ATCC 27853 = CCM 3955 assessed as inhibition of bacterial growth incubated for 24 hrs by microdilution assay; format: functional; settings: not given

| Structure (SMILES) | MIC [µg/mL] |
| --- | --- |
| CCCCCCCCCCCCCCOP(=O)(CCN(CCCN)CCCN)OCC.Cl.Cl.Cl (stereo unspecified) | 4 |
| CCCCCCCCCOP(=O)(CCN(CCCN)CCCN)OCCc1ccc(Cl)cc1.Cl.Cl.Cl (stereo unspecified) | 8 |
| CCCCCCCCCCCCOP(=O)(CCN(CCCN)CCCN)OCCCCCCCCCCCC.Cl.Cl.Cl | 100 |
| CCCCCCCCCCCCCCCOP(=O)(CCN(CCCN)CCCN)OCC.Cl.Cl.Cl (stereo unspecified) | 2 |
| CCCCCCOP(=O)(CCN(CCCN)CCCN)OCCCCCCCCCCCCOP(=O)(CCN(CCCN)CCCN)OCCCCCC.Cl.Cl.Cl.Cl.Cl.Cl (stereo unspecified) | 2 |
| CCCCCCCCCCCCCCOP(=O)(CCN(CCCN)CCCN)OCCc1c[nH]c2ccccc12.Cl.Cl.Cl.Cl (stereo unspecified) | 2 |
| CCCCCCCCCCCCCCCCOP(=O)(CCN(CCCN)CCCN)OCC.Cl.Cl.Cl (stereo unspecified) | 4 |

test system: Escherichia coli; experiment: Antibacterial activity against Escherichia coli ATCC 25922 = CCM 3954 assessed as inhibition of bacterial growth incubated for 24 hrs in presence of BSA by microdilution assay; format: functional; settings: not given

| Structure (SMILES) | MIC [µg/mL] |
| --- | --- |
| CCCCCCCCCCCCCCOP(=O)(CCN(CCCN)CCCN)OCC.Cl.Cl.Cl (stereo unspecified) | > 128 |
| CCCCCCCCCOP(=O)(CCN(CCCN)CCCN)OCCc1ccc(Cl)cc1.Cl.Cl.Cl (stereo unspecified) | 64 |
| CCCCCCCCCCCCCCCOP(=O)(CCN(CCCN)CCCN)OCC.Cl.Cl.Cl (stereo unspecified) | > 129 |
| CCCCCCCCCCCCCCCCOP(=O)(CCN(CCCN)CCCN)OCC.Cl.Cl.Cl (stereo unspecified) | > 130 |

test system: Staphylococcus epidermidis; experiment: Antibacterial activity against Staphylococcus epidermidis CCM 7221 assessed as inhibition of bacterial growth incubated for 24 hrs by microdilution assay; format: functional; settings: not given

| Structure (SMILES) | MIC [µg/mL] |
| --- | --- |
| CCCCCCOP(=O)(CCN(CCCN)CCCN)OCCCCCCCCCCCCOP(=O)(CCN(CCCN)CCCN)OCCCCCC.Cl.Cl.Cl.Cl.Cl.Cl (stereo unspecified) | 0.125 |

test system: Staphylococcus aureus; experiment: Antibacterial activity against methicillin resistant Staphylococcus aureus 4591/A assessed as reduction in microbial growth incubated for 24 hrs by microdilution assay; format: functional; settings: not given

| Structure (SMILES) | MIC [µg/mL] |
| --- | --- |
| CCCCCCOP(=O)(CCN(CCCN)CCCN)OCCCCCCCCCCCCOP(=O)(CCN(CCCN)CCCN)OCCCCCC.Cl.Cl.Cl.Cl.Cl.Cl (stereo unspecified) | 0.5 |

test system: Enterococcus faecium; experiment: Antibacterial activity against vancomycin resistant Enterococcus faecium 419/ANA assessed as reduction in microbial growth incubated for 24 hrs by microdilution assay; format: functional; settings: not given

| Structure (SMILES) | MIC [µg/mL] |
| --- | --- |
| CCCCCCOP(=O)(CCN(CCCN)CCCN)OCCCCCCCCCCCCOP(=O)(CCN(CCCN)CCCN)OCCCCCC.Cl.Cl.Cl.Cl.Cl.Cl (stereo unspecified) | 2 |

test system: Staphylococcus aureus; experiment: Antibacterial activity against Staphylococcus aureus ATCC 29213 = CCM 4223 assessed as inhibition of bacterial growth incubated for 24 hrs in presence of BSA by microdilution assay; format: functional; settings: not given

| Structure (SMILES) | MIC [µg/mL] |
| --- | --- |
| CCCCCCCCCCCCCCOP(=O)(CCN(CCCN)CCCN)OCC.Cl.Cl.Cl (stereo unspecified) | > 128 |
| CCCCCCCCCOP(=O)(CCN(CCCN)CCCN)OCCc1ccc(Cl)cc1.Cl.Cl.Cl (stereo unspecified) | 64 |
| CCCCCCCCCCCCCCCOP(=O)(CCN(CCCN)CCCN)OCC.Cl.Cl.Cl (stereo unspecified) | > 128 |
| CCCCCCCCCCCCCCCCOP(=O)(CCN(CCCN)CCCN)OCC.Cl.Cl.Cl (stereo unspecified) | 128 |

test system: not listed separately; experiment: Hemolytic activity in human RBC assessed as haemoglobin release measured after 3 hr; format: toxicity, cell-based, Erythrocyte; settings: red blood cells (erythrocytes)

| Structure (SMILES) | HC50 at 3 h [µg/mL] |
| --- | --- |
| CCCCCCCCCCCCCCOP(=O)(CCN(CCCN)CCCN)OCC.Cl.Cl.Cl (stereo unspecified) | 12.2 |
| CCCCCCCCCOP(=O)(CCN(CCCN)CCCN)OCCc1ccc(Cl)cc1.Cl.Cl.Cl (stereo unspecified) | 17.3 |
| CCCCCCCCCCCCOP(=O)(CCN(CCCN)CCCN)OCCCCCCCCCCCC.Cl.Cl.Cl | 11.3 |
| CCCCCCCCCCCCCCCOP(=O)(CCN(CCCN)CCCN)OCC.Cl.Cl.Cl (stereo unspecified) | 6.9 |
| CCCCCCCCCCCCCCOP(=O)(CCN(CCCN)CCCN)OCCc1c[nH]c2ccccc12.Cl.Cl.Cl.Cl (stereo unspecified) | 12.4 |
| CCCCCCCCCCCCCCCCOP(=O)(CCN(CCCN)CCCN)OCC.Cl.Cl.Cl (stereo unspecified) | 9.4 |

test system: Escherichia coli; experiment: Antibacterial activity against multidrug-resistant Escherichia coli CE5556 expressing CTX-M-15 assessed as reduction in microbial growth incubated for 24 hrs by microdilution assay; format: functional; settings: not given

| Structure (SMILES) | MIC [µg/mL] |
| --- | --- |
| CCCCCCOP(=O)(CCN(CCCN)CCCN)OCCCCCCCCCCCCOP(=O)(CCN(CCCN)CCCN)OCCCCCC.Cl.Cl.Cl.Cl.Cl.Cl (stereo unspecified) | 2 |
